Reference: patent US8193239B2, “Substituted 1-cyanoethylheterocyclylcarboxamide compounds” (AstraZeneca AB, priority 2009, dated 2012)
Structures can show the parent of a compound that is named as a salt.

Molecular target: Recombinant Human (rh) DPP1 (Homo sapiens, UniProt P53634)
Assay: Fluorescence Assay for Recombinant Human (rh) DPP1
Assay type: biochemical
Conditions: rhDPP1, substrate H-Gly-Arg-AMC, pH5.0, 22° C., pre-incubated 30-60 min; read-out: DPP1 activity, pIC50 (converted)
Description: Fluorescence Assay for Recombinant Human (rh) DPP1
The activity of DPP1 was determined by measuring the enzymatic release of aminomethyl coumarin (AMC) from the peptide substrate (H-Gly-Arg-AMC), which leads to an increase in fluorescence intensity at λex=350 nm and λem=450 nm. The assay was carried out in black 384 well plates in a final volume of 50 μl at 22° C. The assay conditions contained the following: 25 mM piperazine buffer pH5.0; 50 mM NaCl, 5 mM DTT; 0.01% (v/v) Triton X-100; 100 μM H-Gly-Arg-AMC and rhDPP1 ([…]). […] A standard DPP1 inhibitor (vinyl sulfone, see below, or Example 24 from WO2009/074829) was used as a positive control in the assay. Routinely, inhibitors were pre-incubated with rhDPP1 for 30-60 min prior to the addition of the peptide substrate to start the reaction for a further 60 min at 22° C. After that the plates were immediately read in a fluorescence plate reader using the above emission and excitation wavelengths [modified from Kam, C M, Gotz, M G, Koot, G, McGuire, M J, Thiele, D L, Hudig, D & Powers, J C (2004). Arch Biochem Biophys, 427, 123-134 & McGuire, M J, Lipsky, P E & Thiele, D L (1992). Arch Biochem Biophys, 295, 280-288].

Recombinant Human (rh) DPP1, sequence (P53634 231-394 limits assumed): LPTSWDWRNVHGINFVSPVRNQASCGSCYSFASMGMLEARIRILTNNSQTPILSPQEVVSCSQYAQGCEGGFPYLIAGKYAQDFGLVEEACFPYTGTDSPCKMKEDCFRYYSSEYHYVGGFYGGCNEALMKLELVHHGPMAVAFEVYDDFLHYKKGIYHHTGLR
Recombinant Human (rh) DPP1, sequence (P53634 25-134 limits assumed): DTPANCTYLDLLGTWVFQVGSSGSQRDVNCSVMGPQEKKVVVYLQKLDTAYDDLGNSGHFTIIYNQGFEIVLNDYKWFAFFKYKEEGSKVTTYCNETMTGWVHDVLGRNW
Recombinant Human (rh) DPP1, sequence (P53634 395-463 limits assumed): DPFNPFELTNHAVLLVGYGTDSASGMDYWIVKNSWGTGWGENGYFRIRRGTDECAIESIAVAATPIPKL

SMILES	IC50 [nM]
N#C[C@H](Cc1ccc(-c2ccc(S(=O)(=O)N3CCOCC3)cc2)cc1)NC(=O)C1(N)CCOCC1 [Example 27, (S)-4-Amino-N-(1-cyano-2-(4′-(morpholinosulfonyl)biphenyl-4-yl)ethyl)tetrahydro-2H-pyran-4-carboxamide trifluoroacetic acid salt]	1.58
CS(=O)(=O)Oc1cccc(-c2ccc(C[C@@H](C#N)NC(=O)C3(N)CCOCC3)cc2)c1 [Example 12, (S)-4′-(2-(4-Aminotetrahydro-2H-pyran-4-carboxamido)-2-cyanoethyl)biphenyl-3-yl methanesulfonate]	0.501
COc1cc(-c2ccc(C[C@@H](C#N)NC(=O)C3(N)CCOCC3)cc2)ccn1 [Example 26, (S)-4-Amino-N-(1-cyano-2-(4-(2-methoxypyridin-4-yl)phenyl)ethyl)tetrahydro-2H-pyran-4-carboxamide]	1.26
CN1Cc2cc(-c3ccc(C[C@@H](C#N)NC(=O)C4(N)CCOCC4)cc3)ccc2S1(=O)=O [Example 16, (S)-4-Amino-N-{cyano-2-[4-(2-methyl-1,1-dioxido-2,3-dihydro-1,2-benzisothiazol-5-yl)phenyl]ethyl}tetrahydro-2H-pyran-4-carboxamide trifluoroacetic acid salt]	1
N#C[C@H](Cc1ccc(-c2ccc3oc(=O)[nH]c3c2)cc1)NC(=O)C1(N)CCOCC1 [Example 33, (S)-4-Amino-N-(1-cyano-2-(4-(2-oxo-2,3-dihydrobenzo[d]oxazol-5-yl)phenyl)ethyl)tetrahydro-2H-pyran-4-carboxamide trifluoroacetatic acid salt]	0.398
N#C[C@H](Cc1ccc(-c2ccc(C(N)=O)c(F)c2)cc1)NC(=O)C1(N)CCOCC1 [Example 25, (S)-4-Amino-N-(2-(4′-carbamoyl-3′-fluorobiphenyl-4-yl)-1-cyanoethyl)tetrahydro-2H-pyran-4-carboxamide]	1.26
Cc1ccc(-c2ccc(C[C@@H](C#N)NC(=O)C3(N)CCOCC3)cc2)cc1C#N [Example 18, (S)-4-Amino-N-(1-cyano-2-(3′-cyano-4′-methylbiphenyl-4-yl)ethyl)tetrahydro-2H-pyran-4-carboxamide trifluoroacetic acid salt]	0.794
N#C[C@H](Cc1ccc(-c2ccc(F)c(F)c2)cc1)NC(=O)C1(N)CCOCC1 [Example 13, (S)-4-Amino-N-(1-cyano-2-(3′,4′-difluorobiphenyl-4-yl)ethyl)tetrahydro-2H-pyran-4-carboxamide trifluoroacetic acid salt]	0.316
Cc1cc(-c2ccc(C[C@@H](C#N)NC(=O)C3(N)CCOCC3)cc2)ccc1C#N [Example 19, (S)-4-Amino-N-(1-cyano-2-(4′-cyano-3′-methylbiphenyl-4-yl)ethyl)tetrahydro-2H-pyran-4-carboxamide trifluoroacetic acid salt]	< 0.316
